# Biological target: hENPP2 (Homo sapiens, UniProt Q13822)
# Test: Human ENPP2 (hENPP2) biochemical assay using LPC as substrate
# Conditions: 150 µM LPC (palmitoyl 16:0), 37°C for 30 min
# Method: The principle of the assay conswasts in quantifying the released choline with an enzymatic method using choline oxidase and peroxidase. Choline oxydation by choline oxydase releases betaine and peroxide. The latter was quantified in presence of HRP that converts the peroxide detection agent TOOS (CAS# 82692-93-1) and 4-aminoantipyrine into quinoneimine dye. The appearance of quinoneimine dye was measured spectrophotometrically at 555 nm and was proportional to the amount of choline released by ENPP2. Inhibition of ENPP2 results in a decrease of the signal.
# Compound IC50 values were determined in a hENPP2 (UniProtKB/SwwassProt Sequence ref Q13822) biochemical assay using LPC as substrate.
# 5 µL of a dilution series of compound, starting from 50 µM highest concentration, 1/3 dilution, was added to the wells. hENPP2 was used at a final concentration of 1 µg/mL or 3 µg/mL (it will be appreciated by the skilled person that the potency read out was independent of the enzyme concentration). The enzyme was diluted in 50 mM Trwas-HCl pH 8.5, 500 mM NaCl, 5 mM KCl, 10 mM CaCl2, 0.1% fatty acid free BSA in a total volume of 10 µL. The reaction was started by the addition of 10 µL of 150 µM LPC (palmitoyl 16:0; Avanti Polar Lipids, Inc., Cat# 855675) diluted in the same buffer as described above and the mixture was incubated at 37°C for 30 min. The reaction was terminated and choline quantified by the addition of a 25 µL of a mixture containing 0.6 U/mL of choline oxidase, 0.6 U/mL of peroxydase, 1.8 mM TOOS, 1.2 mM amino-antipyrine, 20 mM EGTA (stop-developer solution) diluted in the buffer described above. […] was read on an Envision plate reader (PerkinElmer, Inc.) after an incubation of 30 min at room temperature (excitation 555 nm).
row,SMILES,IC50 [nM]
1,"Cc1cc(C)cc(Nc2ncc3c(n2)CN(C2CCN(C(=O)c4ccc5[nH]nnc5c4)C2)C3)c1 (stereo not drawn) [compound 13, 1H-benzotriazol-5-yl-[3-[2-(3,5-dimethylanilino)-5,7-dihydropyrrolo[3,4-d]pyrimidin-6-yl]pyrrolidin-1-yl]methanone]",100 to 500
2,"O=C(c1ccc2[nH]c(=O)oc2c1)N1CC(N2CCc3nc(Nc4cc(Cl)cc(C(F)(F)F)c4)ncc3C2)C1 [compound 14, 6-[3-[2-[3-chloro-5-(trifluoromethyl)anilino]-7,8-dihydro-5H-pyrido[4,3-d]pyrimidin-6-yl]azetidine-1-carbonyl]-3H-1,3-benzoxazol-2-one]",0.01 to 100
3,"Cc1cc(Cl)cc(Nc2ncc3c(n2)CCN(C2CN(C(=O)c4ccc5[nH]c(=O)oc5c4)C2)C3)c1 [compound 15, 6-[3-[2-(3-chloro-5-methyl-anilino)-7,8-dihydro-5H-pyrido[4,3-d]pyrimidin-6-yl]azetidine-1-carbonyl]-3H-1,3-benzoxazol-2-one]",0.01 to 100
4,"Cc1cc(Cl)cc(Nc2ncc3c(n2)CCN(C2CN(C(=O)c4ccc5[nH]nnc5c4)C2)C3)c1 [compound 16, 1H-benzotriazol-5-yl-[3-[2-(3-chloro-5-methyl-anilino)-7,8-dihydro-5H-pyrido[4,3-d]pyrimidin-6-yl]azetidin-1-yl]methanone]",100 to 500
5,"O=C(c1ccc2[nH]c(=O)oc2c1)N1CC(N2Cc3cnc(Nc4cc(Cl)cc(C(F)(F)F)c4)nc3C2)C1 [compound 17, 6-[3-[2-[3-chloro-5-(trifluoromethyl)anilino]-5,7-dihydropyrrolo[3,4-d]pyrimidin-6-yl]azetidine-1-carbonyl]-3H-1,3-benzoxazol-2-one]",0.01 to 100
6,"Cc1cc(C)cc(Nc2ncc3c(n2)CN(C2CN(C(=O)c4ccc5[nH]nnc5c4)C2)C3)c1 [compound 18, 1H-benzotriazol-5-yl-[3-[2-(3,5-dimethylanilino)-5,7-dihydropyrrolo[3,4-d]pyrimidin-6-yl]azetidin-1-yl]methanone]",0.01 to 100
7,"Cc1cc(C)cc(Nc2ncc3c(n2)CN(C2CN(C(=O)c4ccc5[nH]ncc5c4)C2)C3)c1 [compound 19, [3-[2-(3,5-dimethylanilino)-5,7-dihydropyrrolo[3,4-d]pyrimidin-6-yl]azetidin-1-yl]-(1H-indazol-5-yl)methanone]",100 to 500
8,"Cc1cc(C)cc(Nc2ncc3c(n2)CN(C2CN(C(=O)c4cccc(S(N)(=O)=O)c4)C2)C3)c1 [compound 20, 3-[3-[2-(3,5-dimethylanilino)-5,7-dihydropyrrolo[3,4-d]pyrimidin-6-yl]azetidine-1-carbonyl]benzenesulfonamide]",> 1000
9,"COc1cc(Nc2ncc3c(n2)CN(C2CN(C(=O)c4ccc5[nH]c(=O)oc5c4)C2)C3)cc(OC)c1 [compound 21, 6-[3-[2-(3,5-dimethoxyanilino)-5,7-dihydropyrrolo[3,4-d]pyrimidin-6-yl]azetidine-1-carbonyl]-3H-1,3-benzoxazol-2-one]",0.01 to 100
10,"O=C(c1ccc2[nH]nnc2c1)N1CC(N2Cc3cnc(Nc4cc(Cl)cc(C(F)(F)F)c4)nc3C2)C1 [compound 22, 1H-benzotriazol-5-yl-[3-[2-[3-chloro-5-(trifluoromethyl)anilino]-5,7-dihydropyrrolo[3,4-d]pyrimidin-6-yl]azetidin-1-yl]methanone]",0.01 to 100
11,"COc1cc(C)cc(Nc2ncc3c(n2)CN(C2CN(C(=O)c4ccc5[nH]nnc5c4)C2)C3)c1 [compound 24, 1H-benzotriazol-5-yl-[3-[2-(3-methoxy-5-methyl-anilino)-5,7-dihydropyrrolo[3,4-d]pyrimidin-6-yl]azetidin-1-yl]methanone]",0.01 to 100
12,"Cc1cc(C)cc(Nc2ncc3c(n2)CN(C2CN(C(=O)c4ccc(=O)[nH]c4)C2)C3)c1 [compound 26, 5-[3-[2-(3,5-dimethylanilino) -5,7-dihydropyrrolo[3,4-d]pyrimidin-6-yl]azetidine-1-carbonyl]-1H-pyridin-2-one]",> 1000
13,"COc1cc(Nc2ncc3c(n2)CN(C2CCN(C(=O)c4ccc5[nH]nnc5c4)CC2)C3)cc(OC)c1 [compound 27, 1H-benzotriazol-5-yl-[4-[2-(3,5-dimethoxyanilino)-5,7-dihydropyrrolo[3,4-d]pyrimidin-6-yl]-1-piperidyl]methanone]",100 to 500
14,"Cc1cc(Nc2ncc3c(n2)CN(C2CN(C(=O)c4ccc5[nH]c(=O)oc5c4)C2)C3)cc(C(F)(F)F)c1 [compound 28, 6-[3-[2-[3-methyl-5-(trifluoromethyl)anilino]-5,7-dihydropyrrolo[3,4-d]pyrimidin-6-yl]azetidine-1-carbonyl]-3H-1,3-benzoxazol-2-one]",0.01 to 100
15,"Cc1cc(Nc2ncc3c(n2)CN(C2CN(C(=O)c4ccc5nn[nH]c5c4)C2)C3)cc(C(F)(F)F)c1 [compound 29, 3H-benzotriazol-5-yl-[3-[2-[3-methyl-5-(trifluoromethyl)anilino]-5,7-dihydropyrrolo[3,4-d]pyrimidin-6-yl]azetidin-1-yl]methanone]",0.01 to 100
16,"O=C(c1ccc2[nH]nnc2c1)N1CC(N2Cc3cnc(Nc4ccc(C(F)(F)F)cc4)nc3C2)C1 [compound 30, 1H-benzotriazol-5-yl-[3-[2-[4-(trifluoromethyl)anilino]-5,7-dihydropyrrolo[3,4-d]pyrimidin-6-yl]azetidin-1-yl]methanone]",0.01 to 100
17,"COc1cc(Nc2ncc3c(n2)CN(C2CN(C(=O)c4ccc5[nH]nnc5c4)C2)C3)cc(OC)c1 [compound 31, 1H-benzotriazol-5-yl-[3-[2-(3,5-dimethoxyanilino)-5,7-dihydropyrrolo[3,4-d]pyrimidin-6-yl]azetidin-1-yl]methanone]",0.01 to 100
18,"Cc1cc(C)cc(Nc2ncc3c(n2)CN(C2CN(C(=O)c4cc[nH]c(=O)c4)C2)C3)c1 [compound 32, 4-[3-[2-(3,5-dimethylanilino)-5,7-dihydropyrrolo[3,4-d]pyrimidin-6-yl]azetidine-1-carbonyl]-1H-pyridin-2-one]",> 1000
19,"Cc1cc(C)cc(Nc2ncc3c(n2)CN(C2CCCN(C(=O)c4ccc5[nH]nnc5c4)C2)C3)c1 (stereo not drawn) [compound 33, 1H-benzotriazol-5-yl-[3-[2-(3,5-dimethylanilino)-5,7-dihydropyrrolo[3,4-d]pyrimidin-6-yl]-1-piperidyl]methanone]",> 1000
20,"Cc1cc(C)cc(Nc2ncc3c(n2)CN(C2CCN(C(=O)c4ccc5[nH]c(=O)oc5c4)C(C)C2)C3)c1 (stereo not drawn) [compound 35, 6-[4-[2-(3,5-dimethylanilino)-5,7-dihydropyrrolo[3,4-d]pyrimidin-6-yl]-2-methyl-piperidine-1-carbonyl]-3H-1,3-benzoxazol-2-one]",0.01 to 100
21,"Cc1cc(C)cc(Nc2ncc3c(n2)CN(C2CCN(C(=O)c4ccc5[nH]nnc5c4)CC2(F)F)C3)c1 (stereo not drawn) [compound 37, 1H-benzotriazol-5-yl-[4-[2-(3,5-dimethylanilino)-5,7-dihydropyrrolo[3,4-d]pyrimidin-6-yl]-3,3-difluoro-1-piperidyl]methanone]",0.01 to 100
22,"Cc1cc(C)cc(Nc2ncc3c(n2)CN(C2CN(C(=O)c4ccc(S(N)(=O)=O)cc4)C2)C3)c1 [compound 38, 4-[3-[2-(3,5-dimethylanilino)-5,7-dihydropyrrolo[3,4-d]pyrimidin-6-yl]azetidine-1-carbonyl]benzenesulfonamide]",100 to 500
23,"Cc1cc(C)cc(Nc2ncc3c(n2)CN(C2CCCN(C(=O)c4ccc5[nH]c(=O)oc5c4)C2)C3)c1 (stereo not drawn) [compound 39, 6-[3-[2-(3,5-dimethylanilino)-5,7-dihydropyrrolo[3,4-d]pyrimidin-6-yl]piperidine-1-carbonyl]-3H-1,3-benzoxazol-2-one]",> 1000
24,"Cc1cc(C)cc(Nc2ncc3c(n2)CN(C2CCN(C(=O)c4ccc5[nH]nnc5c4)CC2F)C3)c1 (stereo not drawn) [compound 40, 1H-benzotriazol-5-yl-[4-[2-(3,5-dimethylanilino)-5,7-dihydropyrrolo[3,4-d]pyrimidin-6-yl]-3-fluoro-1-piperidyl]methanone]",0.01 to 100
25,"Cc1cc(C)cc(Nc2ncc3c(n2)CN(C2CC4(C2)CN(C(=O)c2ccc5[nH]nnc5c2)C4)C3)c1 [compound 41, 1H-benzotriazol-5-yl-[6-[2-(3,5-dimethylanilino)-5,7-dihydropyrrolo[3,4-d]pyrimidin-6-yl]-2-azaspiro[3.3]heptan-2-yl]methanone]",500 to 1000
26,"COc1cc(Nc2ncc3c(n2)CN(C2CCN(C(=O)c4ccc5[nH]nnc5c4)C2)C3)cc(OC)c1 (stereo not drawn) [compound 42, 1H-benzotriazol-5-yl-[3-[2-(3,5-dimethoxyanilino)-5,7-dihydropyrrolo[3,4-d]pyrimidin-6-yl]pyrrolidin-1-yl]methanone]",100 to 500
27,"Cc1cncc(Nc2ncc3c(n2)CN(C2CN(C(=O)c4ccc5[nH]nnc5c4)C2)C3)c1 [compound 43, 1H-benzotriazol-5-yl-[3-[2-[(5-methyl-3-pyridyl)amino]-5,7-dihydropyrrolo[3,4-d]pyrimidin-6-yl]azetidin-1-yl]methanone]",500 to 1000
